# Assay results as given in patent US20210267996A1, “Compounds for inhibition of inflammation” (Children`s Medical Center Corporation, priority 2018, published 2021).
# Tests used:
# caspase-11 = biological target: T1, caspase-11 (Mus musculus, UniProt P70343); experiment: Caspase-11 inhibition assay (Ac-YVAD-AMC); type: biochemical
# T1 construct: made in house; host or cells: Sf9 (baculovirus)
# T1 sequence (P70343 81-373): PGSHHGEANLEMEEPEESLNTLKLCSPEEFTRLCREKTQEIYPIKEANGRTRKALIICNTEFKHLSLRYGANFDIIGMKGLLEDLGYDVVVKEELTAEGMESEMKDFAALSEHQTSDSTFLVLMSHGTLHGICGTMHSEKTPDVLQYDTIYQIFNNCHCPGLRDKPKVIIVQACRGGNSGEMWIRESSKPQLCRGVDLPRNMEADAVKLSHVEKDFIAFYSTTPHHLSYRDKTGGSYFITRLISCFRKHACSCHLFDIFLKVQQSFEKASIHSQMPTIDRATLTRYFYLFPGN
# Protocol: Caspase-1 and caspase-11 inhibition assays: the fluorogenic assay for caspase-1 and caspase-11 activity is based on release of 7-amino-4-methylcoumarin (AMC) from the caspase substrate Ac-YVAD-AMC. Compounds (8 nM-50 μM) were incubated with 0.5 U of caspase-1 or caspase-11 for 30 min in assay buffer (20 mM HEPES, 150 mM NaCl) in 384-well plates (Corning 3820) before addition of Ac-YVAD-AMC (40 μM) to initiate the reactions. Reactions were monitored in a SpectraMax M5 plate reader (Molecular Devices, Sunnyvale, Calif. USA) with excitation/emission wavelengths at 350/460 nm. The fluorescence intensity of each reaction was recorded every 2 min for 2 hrs.
# Fluorescence intensity at 460 nm was measured after excitation at 350 nm.
# NF-κB activation = experiment: Inflammasome priming by LPS in THP-1 cells (immunoblot); type: cell-based, human; conditions: for NF-κB activation / pro-IL-1β induction: 30 μM, 1 hr before LPS; for NLRP3 induction: 1 hour before LPS
# Protocol: Immunoblot analysis: cell extracts were prepared using RIPA buffer (50 mM Tris-HCl pH 7.4, 150 mM NaCl, 1 mM EDTA, 1% Triton X-100, 0.1% SDS, 0.5% deoxycholate) supplemented with a complete protease inhibitor cocktail (Roche) and a PhosSTOP phosphatase inhibitor cocktail (Roche). Samples were subjected to SDS-PAGE and the resolved proteins were then transferred to a PVDF membrane (Millipore). Immunoblots were probed with indicated antibodies and visualized using a SuperSignal West Pico chemiluminescence ECL kit (Pierce).
# Because both disulfiram and Bay 11-7082 non-specifically modify reactive Cys, their effects on the steps leading to pyroptosis and inflammatory caspase activation were next analyzed. Some of the genes that participate in the canonical inflammasome pathway are not expressed in unstimulated cells and their expression needs to be induced, often by binding to cell surface sensors of pathogen and danger-associated molecular patterns, such as Toll-like receptors (TLR), in a process called priming. Bay 11-7082 is known to inhibit NF-κB activation, a key transcription factor in priming. The effect of disulfiram and Bay 11-7082 on priming were first examined (FIG. 45). NF-κB activation was assessed by examining IκBα phosphorylation and degradation and RelA (p65) phosphorylation. Induction of pro-IL-1β was assessed by immunoblot for pro-IL1β protein. In the absence of disulfiram or Bay 11-7082, phosphorylation of p65 was first detected 30 min after adding LPS and persisted for 4 hrs, phosphorylation and reduced IκBα. were detected 1 hr after adding LPS, and increased pro-IL-1β was detected 4 hrs after adding LPS. […] Thus, disulfiram and Bay 11-7082 both inhibit priming.
# Cell death was determined by CytoTox96 assay. […] Cell death was determined by CytoTox96 assay. […] Shown are immunoblots of whole cell lysates harvested 0.5 hr later. […] Representative images of ASC specks (arrowheads) and mean±s.d. percent of cells with ASC specks analyzed 20 min later (FIG. 47). Whole cell lysates (WCL) and culture supernatants (Sup) were harvested 30 min after adding nigericin and immunoblotted with the indicated antibodies (FIG. 50). Caspase-1 activity was assayed 30 min after adding nigericin using a cell-permeable fluorescence dye FAM-YVAD-FMK (FIG. 52). […] Representative images of ASC specks (arrowheads) and mean±s.d. percent of cells with ASC specks analyzed 20 min later (FIGS. 48 and 49). Whole cell lysates (WCL) and culture supernatants (Sup), harvested 30 min after adding nigericin, were analyzed by immunoblot (FIG. 51). […] The Figures show representative confocal microscopy images and quantification of proportion of cells with GSDMD membrane staining and pyroptotic bubbles. Arrows indicate GSDMD staining of pyroptotic bubbles. […] FIGS. 57 and 58, dose response curve of the effect of Bay 11-7082 on caspase-1 (FIG. 57) and caspase-11 (FIG. 58) activity against a fluorescent peptide substrate. FIGS. 59 and 60 show MS/MS spectra of the Cys191-containing GSDMD peptide […] (FIG. 60). FIGS. 61 and 62 show dose response curve of the effect of Bay 11-7082 on liposome leakage induced by 0.3 μM human GSDMD-3C (FIG. 61) or mouse GSDMA3-3C (FIG. 62) plus 0.15 μM 3C protease. […] 2-fold dilutions of Bay 11-7082 from 5-40 μM were used. Graphs show the mean±s.d; data are representative of three independent experiments. *P<0.05, **P<0.01.
# To elucidate the cellular mechanism of pyroptosis inhibition by disulfiram, its effects on the entire inflammasome activation pathway were analyzed. Some of the genes that participate in the canonical inflammasome pathway are not expressed in unstimulated cells and their expression needs to be induced, often by binding to cell surface sensors of pathogen and danger-associated molecular patterns, such as Toll-like receptors (TLR), in a process called priming. […]
SMILES,IC50 (caspase-11) [nM],effect of Cu(II) on caspase-11 inhibition (caspase-11; with Cu(II)),NF-κB activation (NF-κB activation),pro-IL-1β induction (NF-κB activation; listed as disulfiram),NLRP3 induction (NF-κB activation),times less active against caspase-11 than disulfiram (caspase-11),pro-IL-1β induction (NF-κB activation)
"CCN(CC)C(=S)SSC(=S)N(CC)CC [C-23, Tetraethylthiuram disulfide]",730 ± 70,did not strongly change,inhibited NF-κB activation,blocked pro-IL-1β induction,blocked,,
Cc1ccc(S(=O)(=O)/C=C/C#N)cc1 [Bay 11-7082],,,had a stronger effect,,blocked,about 3 fold,blocked pro-IL-1β induction
